Experiments:
RXRα = test: RAW264.7 cells with siHes1, Q-PCR: RXRα mRNA; type: cell-based, murine; conditions: siRNA specific to Hes1, polyI:C 1 μg/ml 8 hours; FIG. 9d
Cyp3A11 = conditions: mouse, in vivo
CRBPII = test: BMM Q-PCR: CRBPII; type: cell-based, Murine; conditions: LG268 10 nM with polyI:C 1 μg/ml; IRF3^−/− and IFNAR^−/− BMMs; FIG. 10a
Hes1 = test: BMM Q-PCR: Hes1 mRNA; type: cell-based, Murine; conditions: FIG. 9b
[1] = Dolphin et al. 1987; cited from earlier work

polyinosinic:polycytidylic acid [polyI:C]
polyI:C-mediated repression of RXRα with Hes1 knockdown (RXRα): requirement of Hes1 in polyI:C-mediated repression of RXRα
effect on ASA or PCN induction of CYP3A11 mRNA (Cyp3A11): diminished
effect on induction of CYP3A11 by PCN (Cyp3A11): blunted the induction of CYP3A11 by PCN
LG268 induction of CRBPII (CRBPII): repressed by polyI:C in IFNAR^−/− BMMs but not IRF3^−/− BMMs
Hes1 mRNA (Hes1; LPS 10 ng/ml or polyI:C 1 μg/ml 4 hrs): potently induced
Hes1 induction in IRF3^−/− and IFNAR^−/− BMMs (Hes1; polyI:C 1 μg/ml 4 hrs): involves IRF3, but not Type I IFNs
ASA metabolism after polyI:C treatment [1]: results in defective ASA metabolism

— US20090181910A1, “METHOD OF PREVENTION AND ALLEVIATION OF TOXICITY BY MODULATION OF IRF3” (priority 2006, published 2009)
